We go through four compounds from patent US9023789B2, “Amylin analogs and pharmaceutical compositions thereof” (Novo Nordisk A/S, priority 2012, dated 2015).

Each structure is given as a SMILES string. Numbered stars: 1 amine (or outer) side, 2 acyl side, 3 side chain; on linkers, the order of the positions; unused ones are H or OH. Bridge positions count the residues as written; N and C are the ends. Side chains are listed from the residue outwards. Peptide text beside a SMILES is read from it. * marks the point of attachment. C20 diacid = O=C(O)CCCCCCCCCCCCCCCCCCC(=O)*; γGlu = O=C(O)[C@H](CCC(=O)[*:2])N[*:1]

Assay [1] concerns the target T1, human amylin 3(a) receptor (human calcitonin receptor + RAMP-3) in BHK570 cells (Homo sapiens, UniProt O60896+P30988).
T1 construct: expressed in transfected cells
Description: ASSAY (II)a functional assay, human amylin receptor (CRE luciferase). The assay is classed as cell-based. The method in brief:
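Functional agonism was measured by CRE-luciferase reporter luminescence in BHK cells bearing calcitonin receptor, or calcitonin receptor plus RAMP-3 as the amylin 3(a) receptor. Stimulation lasted 3 hours at 37° C.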

Assay [2] addresses T2, human amylin receptor (membranes from Amylin 3(a)/CRE-luc cells) (Homo sapiens, UniProt O60896+P30988).
T2 construct: expressed in transfected cells
T2 sequence (P30988 25-474): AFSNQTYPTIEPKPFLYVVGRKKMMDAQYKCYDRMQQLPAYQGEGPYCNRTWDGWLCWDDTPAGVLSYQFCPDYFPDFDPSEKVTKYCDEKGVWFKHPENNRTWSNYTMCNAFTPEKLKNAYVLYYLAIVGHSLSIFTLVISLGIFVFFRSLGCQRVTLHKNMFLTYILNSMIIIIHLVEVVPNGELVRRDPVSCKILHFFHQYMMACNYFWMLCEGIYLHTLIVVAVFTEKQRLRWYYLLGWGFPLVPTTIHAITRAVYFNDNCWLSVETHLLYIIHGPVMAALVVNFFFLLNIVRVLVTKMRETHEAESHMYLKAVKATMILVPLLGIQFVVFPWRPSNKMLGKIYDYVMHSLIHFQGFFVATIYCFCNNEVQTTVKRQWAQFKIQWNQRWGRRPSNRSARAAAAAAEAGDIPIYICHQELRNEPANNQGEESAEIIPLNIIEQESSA
T2 sequence (O60896 24-148 partner): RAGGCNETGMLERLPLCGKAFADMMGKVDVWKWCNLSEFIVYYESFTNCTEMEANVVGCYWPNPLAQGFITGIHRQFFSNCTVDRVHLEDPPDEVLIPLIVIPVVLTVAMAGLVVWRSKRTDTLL
Description: ASSAY (V) binding to the human amylin receptor (SPA, 125I-rat amylin).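 Further: competition binding of cell membranes (35 ng/µL) mixed with SPA beads in 384-well plates at 40 µL total volume, read by scintillation counting.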

Assay [3] addresses T3, rat calcitonin receptor (Rattus norvegicus, UniProt P32214).
T3 construct: expressed in transfected cells; host or cells: BHK tk'ts 13 (transient, FuGENE 6), membranes
T3 sequence (P32214 25-479 isoform P32214-2 limits assumed): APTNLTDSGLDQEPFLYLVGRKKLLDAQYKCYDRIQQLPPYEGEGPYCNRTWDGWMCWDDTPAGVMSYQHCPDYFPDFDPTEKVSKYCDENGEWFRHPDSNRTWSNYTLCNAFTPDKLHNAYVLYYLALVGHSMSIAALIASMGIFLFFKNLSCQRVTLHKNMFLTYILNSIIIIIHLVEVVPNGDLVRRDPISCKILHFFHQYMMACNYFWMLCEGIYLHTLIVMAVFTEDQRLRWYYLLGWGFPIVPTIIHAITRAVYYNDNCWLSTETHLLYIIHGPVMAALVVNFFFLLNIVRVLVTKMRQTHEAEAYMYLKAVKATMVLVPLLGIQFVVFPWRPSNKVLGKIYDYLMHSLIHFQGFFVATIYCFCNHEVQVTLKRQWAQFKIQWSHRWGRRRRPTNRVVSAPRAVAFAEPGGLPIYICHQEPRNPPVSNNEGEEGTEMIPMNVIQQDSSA
The assay can be described thus: ASSAY (VIII) binding to the rat calcitonin receptor. As to conditions: Table 7, read-out: rCTR bind IC50. The method in brief:
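Cell membranes for binding came from BHK tk′ts 13 cells harvested approximately 48 hours after transient transfection with the rat receptor.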

[4] abbreviates: hCTR funct. EC50 divided by hAmylin-R funct. EC50.
Setting [5] is: hCTR funct. EC50 over hAmylin-R funct. EC50.
[6] abbreviates: human functional selectivity: hCTR funct. EC50 / hAmylin-R funct. EC50.
The mark [7] stands for this setting: Table 5, selectivity, hCTR bind IC50 / hAmylin-R bind IC50.
Setting [8] is: Table 5a, selectivity, hCTR bind IC50 / hAmylin-R bind IC50.
[9] abbreviates: Table 5b, selectivity, hCTR bind IC50 / hAmylin-R bind IC50.
Setting [10] is: Table 7, human binding selectivity, included for comparison.
Setting [11] is: Table 7a (preferred compounds), human binding selectivity, included for comparison.
[12] abbreviates: ratio of human calcitonin receptor binding IC50 to human amylin receptor binding IC50.
Where [13] appears, read: Table 5c, selectivity, hCTR bind IC50 / hAmylin-R bind IC50.

For the compound `CC[C@H](C)[C@H](NC(=O)[C@H](C)NC(=O)CNC(=O)[C@H](Cc1ccccc1)NC(=O)[C@H](CC(N)=O)NC(=O)[C@@H]1CCCN1C(=O)[C@H](CO)NC(=O)[C@H](CO)NC(=O)[C@H](Cc1c[nH]cn1)NC(=O)[C@H](CCCNC(=N)N)NC(=O)[C@H](CC(C)C)NC(=O)[C@H](Cc1ccccc1)NC(=O)[C@H](CCC(=O)O)NC(=O)[C@H](C)NC(=O)[C@H](CC(C)C)NC(=O)[C@H](CCCNC(=N)N)NC(=O)[C@H](CCC(N)=O)NC(=O)[C@@H](NC(=O)[C@H](C)NC(=O)[C@@H]1CSSC[C@H](NC(=O)[C@H](CCCCN)NC(=O)CC[C@H](NC(=O)CCCCCCCCCCCCCCCCCCC(=O)O)C(=O)O)C(=O)N[C@@H](CC(N)=O)C(=O)N[C@@H]([C@@H](C)O)C(=O)N[C@@H](C)C(=O)N[C@@H]([C@@H](C)O)C(=O)N1)[C@@H](C)O)C(=O)N1CCC[C@H]1C(=O)N[C@@H](CO)C(=O)N[C@@H](CO)C(=O)N[C@H](C(=O)N[C@@H](CC(N)=O)C(=O)N[C@H](C(=O)NCC(=O)N[C@@H](CO)C(=O)N[C@@H](CCCNC(=N)N)C(=O)N[C@H](C(=O)N[C@@H](Cc1ccc(O)cc1)C(N)=O)[C@@H](C)O)C(C)C)[C@@H](C)O` [Example 16] ({C20 diacid-γGlu}-KCNTATCATQRLAEFLRHSSPNFGAIPSSTNVGSRTY-NH2; disulfide 2-7), the “Ratio hCT/hAmylin funct.” value in assay [1] (setting [4]), in assay [1] (setting [5]) and in assay [1] (setting [6]) was 6.1 in each case. For the same compound, the “Ratio hCT/hAmylin binding” value in assay [2] (setting [7]), in assay [2] (setting [8]), in assay [2] (setting [9]), in assay [2] (setting [10]), in assay [2] (setting [11]) and in assay [2] (setting [12]) was 19.1 each time. Further, the IC50 in assay [3] turned out to be 55.2 nM.

With `CC[C@H](C)[C@H](NC(=O)[C@H](C)NC(=O)CNC(=O)[C@H](Cc1ccccc1)NC(=O)[C@H](CC(N)=O)NC(=O)[C@@H]1CCCN1C(=O)[C@H](CO)NC(=O)[C@H](CO)NC(=O)[C@H](Cc1c[nH]cn1)NC(=O)[C@H](CCCNC(=N)N)NC(=O)[C@H](CC(C)C)NC(=O)[C@H](Cc1ccccc1)NC(=O)[C@H](CC(N)=O)NC(=O)[C@H](C)NC(=O)[C@H](CC(C)C)NC(=O)[C@H](CCCNC(=N)N)NC(=O)[C@H](CCC(N)=O)NC(=O)[C@@H](NC(=O)[C@H](C)NC(=O)[C@@H]1CSSC[C@H](NC(=O)[C@H](CCCCN)NC(=O)CC[C@H](NC(=O)CCCCCCCCCCCCCCCCCCC(=O)O)C(=O)O)C(=O)N[C@@H](CC(N)=O)C(=O)N[C@@H]([C@@H](C)O)C(=O)N[C@@H](C)C(=O)N[C@@H]([C@@H](C)O)C(=O)N1)[C@@H](C)O)C(=O)N1CCC[C@H]1C(=O)N[C@@H](CO)C(=O)N[C@@H](CO)C(=O)N[C@H](C(=O)N[C@@H](CC(N)=O)C(=O)N[C@H](C(=O)NCC(=O)N[C@@H](CO)C(=O)N[C@@H](CCC(=O)O)C(=O)N[C@H](C(=O)N[C@@H](Cc1ccc(O)cc1)C(N)=O)[C@@H](C)O)C(C)C)[C@@H](C)O` [Example 23], the “Ratio hCT/hAmylin funct.” value in assay [1] (setting [4]), in assay [1] (setting [5]) and in assay [1] (setting [6]) was 8.9 each time. The “Ratio hCT/hAmylin binding” value in assay [2] (setting [7]), in assay [2] (setting [8]), in assay [2] (setting [9]), in assay [2] (setting [13]), in assay [2] (setting [10]) and in assay [2] (setting [11]) was 25.0 in each case. Moreover, the “Ratio hCT/hAmylin binding” value in assay [2] (setting [12]) is reported as 25.0. Moreover, the IC50 in assay [3] was found to be 79.9 nM.

Regarding `CC[C@H](C)[C@H](NC(=O)[C@H](C)NC(=O)CNC(=O)[C@H](Cc1ccccc1)NC(=O)[C@H](CC(N)=O)NC(=O)[C@@H]1CCCN1C(=O)[C@H](CO)NC(=O)[C@H](CO)NC(=O)[C@H](Cc1c[nH]cn1)NC(=O)[C@H](CCCNC(=N)N)NC(=O)[C@H](CC(C)C)NC(=O)[C@H](Cc1ccccc1)NC(=O)[C@H](CCC(=O)O)NC(=O)[C@H](C)NC(=O)[C@H](CC(C)C)NC(=O)[C@H](CCCNC(=N)N)NC(=O)[C@H](CCC(N)=O)NC(=O)[C@@H](NC(=O)[C@H](C)NC(=O)[C@@H]1CSSC[C@H](NC(=O)[C@@H](N)CCCCNC(=O)CC[C@H](NC(=O)CC[C@H](NC(=O)CCCCCCCCCCCCCCCCCCC(=O)O)C(=O)O)C(=O)O)C(=O)N[C@@H](CC(N)=O)C(=O)N[C@@H]([C@@H](C)O)C(=O)N[C@@H](C)C(=O)N[C@@H]([C@@H](C)O)C(=O)N1)[C@@H](C)O)C(=O)N1CCC[C@H]1C(=O)N[C@@H](CO)C(=O)N[C@@H](CO)C(=O)N[C@H](C(=O)N[C@@H](CC(N)=O)C(=O)N[C@H](C(=O)NCC(=O)N1CCC[C@H]1C(=O)N[C@@H](Cc1c[nH]cn1)C(=O)N[C@H](C(=O)N[C@@H](Cc1ccc(O)cc1)C(N)=O)[C@@H](C)O)C(C)C)[C@@H](C)O` [Example 124] (H-K([γGlu-γGlu-C20 diacid])CNTATCATQRLAEFLRHSSPNFGAIPSSTNVGPHTY-NH2; disulfide 2-7 (inferred)), the “Ratio hCT/hAmylin funct.” value in assay [1] (setting [4]), in assay [1] (setting [5]) and in assay [1] (setting [6]) was 16.4 in each case. For the same compound, the “Ratio hCT/hAmylin binding” value in assay [2] (setting [7]), in assay [2] (setting [8]), in assay [2] (setting [9]), in assay [2] (setting [13]), in assay [2] (setting [10]) and in assay [2] (setting [11]) was 27.3 each time. Moreover, in assay [2] (setting [12]), the “Ratio hCT/hAmylin binding” value worked out at 27.3. Besides, the IC50 in assay [3] is 21 nM.

In the case of `CC[C@H](C)[C@H](NC(=O)[C@H](C)NC(=O)CNC(=O)[C@H](Cc1ccccc1)NC(=O)[C@H](CC(N)=O)NC(=O)[C@@H]1CCCN1C(=O)[C@H](CO)NC(=O)[C@H](CO)NC(=O)[C@H](Cc1c[nH]cn1)NC(=O)[C@H](CCCNC(=N)N)NC(=O)[C@H](CC(C)C)NC(=O)[C@H](Cc1ccccc1)NC(=O)[C@H](CCC(=O)O)NC(=O)[C@H](C)NC(=O)[C@H](CC(C)C)NC(=O)[C@H](CCCNC(=N)N)NC(=O)[C@H](CCC(N)=O)NC(=O)[C@@H](NC(=O)[C@H](C)NC(=O)[C@@H]1CSSC[C@H](NC(=O)[C@H](CCCCN)NC(=O)CC[C@H](NC(=O)CCCCCCCCCCCCCCCCCCC(=O)O)C(=O)O)C(=O)N[C@@H](CC(N)=O)C(=O)N[C@@H]([C@@H](C)O)C(=O)N[C@@H](C)C(=O)N[C@@H]([C@@H](C)O)C(=O)N1)[C@@H](C)O)C(=O)N1CCC[C@H]1C(=O)N[C@@H](CO)C(=O)N[C@@H](CO)C(=O)N[C@H](C(=O)N[C@@H](CC(N)=O)C(=O)N[C@H](C(=O)NCC(=O)N[C@@H](CO)C(=O)N[C@@H](Cc1c[nH]cn1)C(=O)N[C@H](C(=O)N[C@@H](Cc1ccc(O)cc1)C(N)=O)[C@@H](C)O)C(C)C)[C@@H](C)O` [Example 18] ({C20 diacid-γGlu}-KCNTATCATQRLAEFLRHSSPNFGAIPSSTNVGSHTY-NH2; disulfide 2-7), the “Ratio hCT/hAmylin funct.” value in assay [1] (hCTR funct. EC50 / hAmylin-R funct. EC50), in assay [1] (setting [4]), in assay [1] (setting [5]) and in assay [1] (setting [6]) was 4.8 throughout. Also, the EC50 in assay [1] (human amylin receptor functional potency, assay (II), read-out: hAmylin-R funct. EC50) worked out at 0.154 nM. The IC50 worked out at 0.554 nM in assay [2] (Table 4, read-out: hAmylin-R bind IC50) and 13 nM in assay [3]. For the same compound, the “Ratio hCT/hAmylin binding” value in assay [2] (setting [7]), in assay [2] (setting [10]) and in assay [2] (setting [11]) was 9.2 throughout.
